For orientation: IC50 means the concentration that gives 50% inhibition.

The record followed here is patent publication US9643970B2, “Substituted imidazo [1,5-a]pyrazines as PDE9 inhibitors” (H Lundbeck A/S, priority 2012, dated 2017).

In the first assay the target is PDE9 (Homo sapiens, UniProt O76083). Kind of assay: PDE9 inhibition assay. It is filed as biochemical.
Chain of PDE9 (O76083 whole entry): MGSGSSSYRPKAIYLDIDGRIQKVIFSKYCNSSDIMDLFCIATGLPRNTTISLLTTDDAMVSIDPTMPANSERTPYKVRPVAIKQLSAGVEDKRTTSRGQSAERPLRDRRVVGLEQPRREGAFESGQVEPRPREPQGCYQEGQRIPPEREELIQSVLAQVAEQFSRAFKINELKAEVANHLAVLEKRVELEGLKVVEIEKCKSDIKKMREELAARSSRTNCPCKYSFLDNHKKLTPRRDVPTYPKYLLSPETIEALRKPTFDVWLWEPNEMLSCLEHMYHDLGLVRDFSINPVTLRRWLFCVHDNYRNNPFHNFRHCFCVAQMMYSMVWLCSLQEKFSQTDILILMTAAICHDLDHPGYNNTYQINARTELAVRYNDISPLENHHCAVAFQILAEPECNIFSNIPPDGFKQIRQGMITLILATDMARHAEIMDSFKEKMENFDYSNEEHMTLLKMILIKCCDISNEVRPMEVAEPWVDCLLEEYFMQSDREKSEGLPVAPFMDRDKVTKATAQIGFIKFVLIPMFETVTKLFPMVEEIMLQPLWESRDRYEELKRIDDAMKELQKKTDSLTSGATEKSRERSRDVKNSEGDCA
Conditions: not given
How it is done:
Reactions are initiated by addition of the cyclic nucleotide substrate, and reactions are allowed to proceed for one hr at room temperature before being terminated through mixing with 15 uL 8 mg/mL yttrium silicate SPA beads (Amersham). […] IC50 values were calculated by non linear regression using XLfit (IDBS).
The molecule `O=c1[nH]c(CN2CC(c3ccccn3)C2)cn2c(C3CCOCC3)ncc12` [Compound 62, 6-[[3-(2-pyridyl)azetidin-1-yl]methyl]-3-tetrahydropyran-4-yl-7h-imidazo[1,5-a]pyrazin-8-one] came in with a 50% inhibitory concentration (IC50) of 0.078 µM. On the same count and under the same terms, the value for `O=c1[nH]c(CN2CC(Oc3cccnc3)C2)cn2c(-c3ccc(F)cc3)ncc12` [Compound 88, 3-(4-fluorophenyl)-6-[[3-(3-pyridyloxy)azetidin-1-yl]methyl]-7h-imidazo[1,5-a]pyrazin-8-one] was 0.003 µM; that for `O=c1[nH]c(CN2CC(Oc3ccccc3F)C2)cn2c(C3CCOCC3)ncc12` [Compound 50, 6-[[3-(2-fluorophenoxy)azetidin-1-yl]methyl]-3-tetrahydropyran-4-yl-7h-imidazo[1,5-a]pyrazin-8-one] was 0.021 µM; that for `COc1ccc(C2CN(C(C)c3cn4c(-c5ccc(F)cc5)ncc4c(=O)[nH]3)C2)cc1` (centres unmarked) [Compound 126, 3-(4-fluorophenyl)-6-[1-[3-(4-methoxyphenyl)azetidin-1-yl]ethyl]-7h-imidazo[1,5-a]pyrazin-8-one] was 0.07 µM. The same measure, in the same setting: the value for `Cc1ccnc(C2CN(C(C)c3cn4c(-c5ccccc5)ncc4c(=O)[nH]3)C2)c1` (centres unmarked) [Compound 29, 6-[1-[3-(4-methyl-2-pyridyl)azetidin-1-yl]ethyl]-3-phenyl-7h-imidazo[1,5-a]pyrazin-8-one] was 0.02 µM; that for `COc1ccc(C2CN(Cc3cn4c(C5CCOCC5)ncc4c(=O)[nH]3)C2)cc1` [Compound 69, 6-[[3-(4-methoxyphenyl)azetidin-1-yl]methyl]-3-tetrahydropyran-4-yl-7h-imidazo[1,5-a]pyrazin-8-one] was 0.03 µM. `CC(c1cn2c(C3CCCC3)ncc2c(=O)[nH]1)N1CC(Oc2ccc(F)cc2)C1` (centres unmarked) [Compound 47, 3-cyclopentyl-6-[1-[3-(4-fluorophenoxy)azetidin-1-yl]ethyl]-7h-imidazo[1,5-a]pyrazin-8-one] displayed an IC50 of 0.003 µM. `COc1ccc(C2CN(Cc3cn4c(-c5ccc(F)cc5)ncc4c(=O)[nH]3)C2)cc1` [Compound 123, 3-(4-fluorophenyl)-6-[[3-(4-methoxyphenyl)azetidin-1-yl]methyl]-7h-imidazo[1,5-a]pyrazin-8-one] registered a 50% inhibitory concentration (IC50) of 0.057 µM.

The assay is the same for the next values; noted with them: SPA assay, 10 nM 3H-cAMP, 1 hour incubation; read-out: IC50.
For the molecule `CCC(c1cn2c(-c3ccccc3)ncc2c(=O)[nH]1)N1CC(c2ccc(F)cc2)C1` (centres unmarked) [Compound 12, 6-[1-[3-(4-fluorophenyl)azetidin-1-yl]propyl]-3-phenyl-7h-imidazo[1,5-a]pyrazin-8-one], the 50% inhibitory concentration (IC50) was 0.019 µM. Turning to `CC1CN(Cc2ccccn2)CC1c1cn2c(-c3ccccc3)ncc2c(=O)[nH]1` (centres unmarked) [Compound 43, 6-[4-methyl-1-(2-pyridylmethyl)pyrrolidin-3-yl]-3-phenyl-7h-imidazo[1,5-a]pyrazin-8-one], the half-inhibitory concentration (IC50) came to 0.014 µM.

On to `O=c1[nH]c(CN2CC(c3ncccn3)C2)cn2c(-c3ccc(F)cc3)ncc12` [Compound 53, 3-(4-fluorophenyl)-6-[(3-pyrimidin-2-ylazetidin-1-yl)methyl]-7h-imidazo[1,5-a]pyrazin-8-one], for which the IC50 was 0.022 µM. On the same count and under the same terms, in the case of `O=c1[nH]c(CN2CC(Oc3cccc(F)n3)C2)cn2c(-c3ccc(F)cc3)ncc12` [Compound 60, 3-(4-fluorophenyl)-6-[[3-[(6-fluoro-2-pyridyl)oxy]azetidin-1-yl]methyl]-7h-imidazo[1,5-a]pyrazin-8-one] it was 0.164 µM. On the same count and under the same terms, in the case of `CC(NCC1CCCCC1)c1cn2c(-c3ccccc3)ncc2c(=O)[nH]1` (centres unmarked) [Compound 2, 6-[1-(cyclohexylmethylamino)ethyl]-3-phenyl-7h-imidazo[1,5-a]pyrazin-8-one] it was 0.187 µM. Same read-out and setting: in the case of `N#Cc1ccc(C2CN(Cc3cn4c(-c5ccccc5)ncc4c(=O)[nH]3)C2)cc1` [Compound 35, 4-[1-[(8-oxo-3-phenyl-7h-imidazo[1,5-a]pyrazin-6-yl)methyl]azetidin-3-yl]benzonitrile] it was 0.049 µM; in that of `N#Cc1ccc(C2CN(Cc3cn4c(C5CCOCC5)ncc4c(=O)[nH]3)C2)cc1` [Compound 106, 4-[1-[(8-oxo-3-tetrahydropyran-4-yl-7h-imidazo[1,5-a]pyrazin-6-yl)methyl]azetidin-3-yl]benzonitrile], 0.032 µM; in that of `CC1CN(Cc2ccc(F)cc2)CC1c1cn2c(C3CCOCC3)ncc2c(=O)[nH]1` (centres unmarked) [Compound 89, 6-[1-[(4-fluorophenyl)methyl]-4-methyl-pyrrolidin-3-yl]-3-tetrahydropyran-4-yl-7h-imidazo[1,5-a]pyrazin-8-one], 0.007 µM. Consider `COc1ccc(C2CN(C(C)c3cn4c(-c5ccccc5)ncc4c(=O)[nH]3)C2)cc1` (centres unmarked) [Compound 34, 6-[1-[3-(4-methoxyphenyl)azetidin-1-yl]ethyl]-3-phenyl-7h-imidazo[1,5-a]pyrazin-8-one], for which the IC50 amounted to 0.066 µM.
